# Assay results taken from publication PMC4550094 (Journal of biomolecular screening, 2013).
# Read-outs that look alike come from different tables or passages of the source.
# Columns and labels:
# [1] = system: HepG2 cells; experiment: LipidTOX Red PLD assay, qHTS, 1536-well high-content imaging; assay type: cell-based, Human; conditions: for EC50: Homo sapiens, HepG2, 24 h
# [2] = system: isolated lamellar bodies; conditions: Binding study; cited from earlier work
compound,measurement,setting,value
CC(CN(C)C)CN1c2ccccc2CCc2ccccc21 (stereo not shown) [Trimipramine],PLD induction (result in words),"[1]; HepG2, primary screen and cherry-pick confirmation",induce PLD
same,EC50,[1]; read-out: Confirmation EC50 (PLD induction),8.7 ± 1.2 µM
same,EC50,[1]; read-out: Primary Screen EC50 (PLD induction),3.5 µM
same,Literature-Reported: Active at (concentration),[2],Active at 1 mM
